Experimental findings from patent publication US20220008411A1, “TOLL-LIKE RECEPTOR 7 OR 8 AGONIST-CHOLESTEROL COMPLEX AND METHOD OF PREPARING SAME” (RESEARCH & BUSINESS FOUNDATION SUNGKYUNKWAN UNIVERSITY, priority 2019, published 2022) are described below.

Data set [1] is described as follows: toxicity in vivo (serum cytokine, body weight). Also on record: species or system C57BL/6 mouse. Conditions: 25 μg/100 μL subcutaneous. How it is done: In addition, the collected blood was centrifuged (4° C., 13,000 rpm, 20 min) to separate serum and blood cells, and a cytokine amount was measured through ELISA using the serum.
Data set [2] deals with carboxylesterase. Conditions: nanoliposome, 30 units of carboxylesterase, 37° C.
Data set [3] concerns bone marrow-derived dendritic cells (BMDCs) or bone marrow-derived macrophages (BMDMs). The data set can be described thus: activation of immune cells, cleavable vs uncleavable complex (ELISA). It counts as cell-based. Conditions: given as liposome, 24 hours. How it is done: Degree of activation of immune cells was confirmed using the cholesterol-resiquimod complex, in which cholesterol is not cleaved at a specific point of time as a control. […] In addition, a liquid culture was obtained, centrifuged at 490 g for 5 minutes, thereby obtaining only a supernatant, and ELISA was carried out using a BD OptEIA™ kit.

The test system of data set [4] is B16-OVA melanoma cell line. The data set can be described thus: anticancer effect with OVA antigen in B16-OVA melanoma model. Conditions: intratumoral injection on day 0, 3, 6 and 9.
Description: More specifically, 5×10^5 cells of a B16-OVA cell line were subcutaneously injected into the right flank of a C57BL/6 mouse, and the time when a tumor size reached approximately 50 mm^3 was set to day 0, each of phosphate-buffered saline (control), an OVA antigen (OVA), resiquimod+OVA antigen (R848+OVA), and a nanoliposome including a cholesterol-resiquimod complex, +OVA antigen (Lipo(Chol-R848)+OVA) were administered into a mouse through intratumoral injection on day 0, 3, 6 and 9. 10 μg of the OVA antigen was administered, 25 μg of resiquimod was administered, and 25 μg (based on resiquimod) of the nanoliposome including the cholesterol-resiquimod complex was administered. In addition, a mouse survival rate and a cancer size were measured.

For `CCOCc1nc2c(N)nc3ccccc3c2n1CC(C)(C)O` [resiquimod], in data set [1], the body weight result is listed as “dramatically changing a body weight” and the “cytokine amount in serum” value is given as “rapidly increased in serum at an early stage”.

On to `CCOCc1nc2c(NC(=O)OC3CCC4(C)C(=CCC5C4CCC4(C)C(C(C)CCCC(C)C)CCC54)C3)nc3ccccc3c2n1CC(C)(C)O` (stereo not drawn) [Chol-R848, cholesterol-conjugated resiquimod], for which the “cholesterol cleavage by enzyme” value in data set [2] was “cleaved”. In data set [3], the “activation of immune cells” value is on record as “effectively activates immune cells”.

B1: OVA antigen: ovalbumin (OVA) antigen (protein, UniProt P01012 2-386, looked up)
Ovalbumin: GSIGAASMEFCFDVFKELKVHHANENIFYCPIAIMSALAMVYLGAKDSTRTQINKVVRFDKLPGFGDSIEAQCGTSVNVHSSLRDILNQITKPNDVYSFSLASRLYAEERYPILPEYLQCVKELYRGGLEPINFQTAADQARELINSWVESQTNGIIRNVLQPSSVDSQTAMVLVNAIVFKGLWEKAFKDEDTQAMPFRVTEQESKPVQMMYQIGLFRVASMASEKMKILELPFASGTMSMLVLLPDEVSGLEQLESIINFEKLTEWTSSNVMEERKIKVYLPRMKMEEKYNLTSVLMAMGITDVFSSSANLSGISSAESLKISQAVHAAHAEINEAGREVVGSAEAGVDAASVSEEFRADHPFLFCIKHIATNAVLFFGRCVSP
As to B1, in data set [4], the mouse survival entry was “no mouse surviving three weeks or more”. In addition, in data set [4] (10 μg OVA, 25 μg resiquimod basis), the cancer size entry is recorded as “dramatically increased”.
